Assay results taken from patent US5955495A, “Method of treating diseases of the CNS” (Hoffmann-La Roche Inc., priority 1997, dated 1999).

Assays:
5-HT2A receptor = molecular target: T1, 5-HT2A receptor (Homo sapiens, UniProt P28223); test: [3H]-DOB binding assay (method b), affinity to the 5-HT2A receptor; details: Ki from IC50 in nM; for Ki: read-out: Pki (Pki=-log10 Ki), 5-HT2A, Method b (converted)
T1 construct: expressed in transfected cells
Description: (§1) The binding of compounds of formula I in accordance with the invention to selected serotonin […] was determined in vitro by standard methods. The preparations were investigated in accordance with the tests given hereinafter:
b) Affinity to the 5-HT2A receptor in accordance with the [3H]- DOB binding assay according to the method of T. Branchek et. al., Molecular Pharmacology 38, 604-609 (1990).
(§2) The Pki values (Pki=-log10 Ki) of the test substances are given. The Ki value is defined by the following formula: [formula] with the IC50 values being those concentrations of test compounds in nM at which 50% of the receptor-bonded ligands are displaced. [L] is the ligand concentration and the KD value is the dissocation constant of the ligand.

5-HT2C receptor [1] = molecular target: T2, 5-HT2C receptor (Rattus norvegicus, UniProt P08909); test: [3H]-5-HT binding assay (method a), affinity to the 5-HT2C receptor; parameters: expressed in transfected cells; details: Ki from IC50 in nM; for Ki: read-out: Pki (Pki=-log10 Ki), 5-HT2C, Method a (converted)
T2 sequence (P08909 33-460): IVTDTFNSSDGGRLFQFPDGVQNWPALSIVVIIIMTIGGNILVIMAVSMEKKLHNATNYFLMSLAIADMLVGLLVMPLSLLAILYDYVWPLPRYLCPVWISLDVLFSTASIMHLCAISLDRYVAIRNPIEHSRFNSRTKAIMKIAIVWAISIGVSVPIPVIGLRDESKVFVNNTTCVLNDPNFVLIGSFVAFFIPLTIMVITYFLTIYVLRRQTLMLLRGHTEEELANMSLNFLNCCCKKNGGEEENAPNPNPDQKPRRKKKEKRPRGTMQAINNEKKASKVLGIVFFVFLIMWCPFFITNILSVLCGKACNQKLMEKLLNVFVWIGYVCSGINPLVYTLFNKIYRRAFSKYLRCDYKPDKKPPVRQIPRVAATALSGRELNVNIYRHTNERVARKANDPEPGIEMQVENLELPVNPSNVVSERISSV
Description: as §1
a) Affinity to the 5-HT2C receptor in accordance with the [3H]-5-HT binding assay according to the method of S.J. Peroutka et al., Brain Research 584, 191-196 (1992).
as §2

5-HT2C receptor [2] = molecular target: T2, 5-HT2C receptor; test: Penile erection (rats); type: in vivo; parameters: following the administration of the test substance to the animals; from tissue; host or cells: whole living rat (in vivo); details: po, 0.75 h, p.o., erections within 45 minutes following administration, read-out: ID50 (mg/kg) (p.o.), penile erection
Description: It has been shown that penile erection is dependent on the stimulation of 5HT2C receptors (see Berendsen & Broekkamp, Eur. J. Pharm., 135, 179-184 (1987).
The number of penile erections was determined within 45 minutes following the administration of the test substance to the animals. The ED50 is the dosage which causes 50% of these erections.

T1 sequence (P28223 whole entry): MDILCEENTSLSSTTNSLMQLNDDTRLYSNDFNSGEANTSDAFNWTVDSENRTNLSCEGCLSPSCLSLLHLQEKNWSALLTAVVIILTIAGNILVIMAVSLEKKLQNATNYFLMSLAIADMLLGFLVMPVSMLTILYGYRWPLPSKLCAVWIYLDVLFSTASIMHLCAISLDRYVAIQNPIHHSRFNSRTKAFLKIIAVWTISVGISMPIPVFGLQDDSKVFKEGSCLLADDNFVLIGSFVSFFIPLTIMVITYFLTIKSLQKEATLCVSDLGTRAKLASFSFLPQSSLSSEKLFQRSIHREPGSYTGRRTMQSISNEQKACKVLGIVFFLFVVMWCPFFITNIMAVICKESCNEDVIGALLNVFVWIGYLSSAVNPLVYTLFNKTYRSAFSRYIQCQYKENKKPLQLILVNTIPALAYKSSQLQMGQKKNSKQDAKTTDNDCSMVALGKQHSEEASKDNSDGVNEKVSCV

Structure (SMILES)	Ki (5-HT2A receptor) [nM]	Ki (5-HT2C receptor [1]) [nM]	ED50 (5-HT2C receptor [2]) [mg/kg]	Pki (Pki=-log10 Ki), 5-HT2A, Method b (5-HT2A receptor)	Pki (Pki=-log10 Ki), 5-HT2C, Method a (5-HT2C receptor [1])
N=C(N)c1cc2ccc3c(c2o1)OCC3 [--O--CH2 --CH2 -- H H H]	3160	398			
N=C(N)c1cc2cc(Br)cc(Br)c2o1 [Br H Br H H]	316	2000			
N=C(N)c1cc2cc(Cl)cc(Br)c2o1 [Br H Cl H H]	316	5010			
N=C(N)c1cc2cccc(Br)c2o1 [Br H H H H]	1580	126			
COCc1cccc2cc(C(=N)N)oc12 [CH2 --O-Me H H H H]	3160	158			
CC(C)OCc1cccc2cc(C(=N)N)oc12 [CH2 --O-iPr H H H H]	2000	398	5.1		
CSCc1cccc2cc(C(=N)N)oc12 [CH2 --S-Me H H H H]	1000	251			
N=C(N)c1cc2cccc(O)c2o1 [CH H H H H]				< 5	6.2
N=C(N)c1cc2cc(Cl)cc(Cl)c2o1 [Cl H Cl H H]	631	2510			
N=C(N)c1cc2cccc(Cl)c2o1 [Cl H H H H]	3980	158			
N=C(N)c1cc2cc(F)c(F)cc2o1 [Example 1, 5,6-Difluorobenzofuran-2-carboxamidine]	2000	158	6		
CCOc1cccc2oc(C(=N)N)cc12 [Example 2, 4-Ethoxybenzofuran-2-carboxamidine]	> 10000	158			
COc1cccc2cc(C(=N)N)oc12 [Example 3, 7-Methoxybenzofuran-2-carboxamidine]	> 10000	158			
CCOc1cccc2cc(C(=N)N)oc12 [Example 4, 7-Ethoxybenzofuran-2-carboxamidine]	> 10000	50.1			
N=C(N)c1cc2cc(F)ccc2o1 [Example 5, 5-Fluorobenzofuran-2-carboxamidine]	2000	158			
N=C(N)c1cc2ccc(F)cc2o1 [Example 6, 6-Fluorobenzofuran-2-carboxamidine]	2510	158	3		
CCOCc1cccc2cc(C(=N)N)oc12 [Example 7, 7-Ethoxymethylbenzofuran-2-carboxamidine]	2000	100			
CCCc1c(F)ccc2cc(C(=N)N)oc12 [Example 8, 6-Fluoro-7-propylbenzofuran-2-carboxamidine]	158	20			
N=C(N)c1cc2c(F)cccc2o1 [Example 9, 4-Fluoro-benzofuran-2-carboxamidine]	2000	39.8	2.9		
N=C(N)c1cc2c(F)cc(F)cc2o1 [Example 10, 4.6-Difluoro-benzofuran-2-carboxamidine]	631	7.94			
CCCc1ccc(F)c2cc(C(=N)N)oc12 [Example 11]	501	7.94			
N=C(N)c1cc2c(F)ccc(Br)c2o1 [Example 12, 7-Bromo-4-fluorobenzofuran-2-carboxamidine]	> 10000	> 10000			
NC(=NO)c1cc2cc(F)c(F)cc2o1 [Example 13, 5,6-Difluorobenzofuran-2-carboxamidoxime]	> 10000	> 10000			
CCOc1cccc2cc(C(N)=NO)oc12 [Example 14, 7-Ethoxybenzofuran-2-carboxamidoxime]	> 10000	5500			
NC(=NO)c1cc2cc(F)ccc2o1 [Example 15, 5-Fluorobenzofuran-2-carboxamidoxime]	> 10000	4270			
NC(=NO)c1cc2ccc(F)cc2o1 [Example 16, 6-Fluorobenzofuran-2-carboxamidoxime]	> 10000	4370	1.6		

Structure (SMILES)	Ki (5-HT2A receptor) [nM]	Ki (5-HT2C receptor [1]) [nM]	ED50 (5-HT2C receptor [2]) [mg/kg]	Pki (Pki=-log10 Ki), 5-HT2A, Method b (5-HT2A receptor)	Pki (Pki=-log10 Ki), 5-HT2C, Method a (5-HT2C receptor [1])
CCOCc1cccc2cc(C(N)=NO)oc12 [Example 17, 7-Ethoxymethylbenzofuran-2-carboxamidoxime]	> 10000	> 10000			
NC(=NO)c1cc2c(F)cccc2o1 [Example 18, 4-Fluorobenzofuran-2-carboxamidoxime]	2510	79.4			
N=C(N)c1cc2cccc(F)c2o1 [F H H H H]	5010	794			
N=C(N)c1cc2ccc(Cl)cc2o1 [H Cl H H H]	5010	1260			
N=C(N)c1cc2cc(Cl)ccc2o1 [H H Cl H H]	1580	1580			
NC(=NO)c1cc2ccccc2o1 [H H H H CH, benzofuran-2-carboxamidoxime]	> 10000	> 10000	2		
N=C(N)c1cc2ccccc2o1 [H H H H H, benzofuran-2-carboxamidine]	5010	79.4	5		
COc1cccc2oc(C(=N)N)cc12 [H H H OMe H]	2000	158			
COc1ccc2oc(C(=N)N)cc2c1 [H H OMe H H]	> 10000	2510			
Cc1ccc2cc(C(=N)N)oc2c1 [H Me H H H]	> 10000	1000			
COc1ccc2cc(C(=N)N)oc2c1 [H OMe H H H]	6310	631			
Cc1cccc2cc(C(=N)N)oc12 [Me H H H H]	2510	398			
N=C(N)c1cc2cccc(OC3CCCCC3)c2o1 [O-Cyclo-hex H H H H]	158	631			
N=C(N)c1cc2cccc(OC3CCCC3)c2o1 [O-Cyclo-pent H H H H]	251	501			
N=C(N)c1cc2cccc(OCc3ccccc3)c2o1 [OBn H H H H]	126	63.1			
COc1cc(Br)cc2cc(C(=N)N)oc12 [OMe H Br H H]	2510	126			
COc1ccc(C)c2cc(C(=N)N)oc12 [OMe H H Me H]	2510	100			
COc1cc(-c2ccccc2)cc2cc(C(=N)N)oc12 [OMe H Ph H H]	158	1580			
CCCOc1cccc2cc(C(=N)N)oc12 [OPr H H H H]	> 10000	158			
CC(C)COc1cccc2cc(C(=N)N)oc12 [Oi-Bu H H H H]	1000	2000			
CC(C)CCOc1cccc2cc(C(=N)N)oc12 [Oi-Pent H H H H]	158	501			
CC(C)Oc1cccc2cc(C(=N)N)oc12 [Oi-Pr H H H H]	1000	200			
N=C(N)c1cc2cccc(-c3ccccc3)c2o1 [Ph H H H H]	158	251			
CSc1cccc2cc(C(=N)N)oc12 [SMe H H H H]	1000	79.4			
CC(C)c1cccc2cc(C(=N)N)oc12 [i-Prop H H H H]	794	63.1			
CCCc1cccc2cc(C(=N)N)oc12 [n-Pr H H H H]	1000	79.4			
